According to ChEMBL document CHEMBL1126921, “Heterocyclic lactam derivatives as dual angiotensin converting enzyme and neutral endopeptidase 24.11 inhibitors” (J Med Chem, 1993):

Legend:
Rattus norvegicus [1] = assay: Tested for the plasma concentration based on ex vivo NEP inhibition after 1 hour following an oral dose of 10 mg/kg; type: functional, organism-based; design: dose 10 mg/kg
Rattus norvegicus [2] = assay: Tested for the plasma concentration based on ex vivo NEP inhibition after 2 hours following an oral dose of 10 mg/kg; type: functional, organism-based; design: dose 10 mg/kg
Rattus norvegicus [3] = assay: Tested for the plasma concentration based on ex vivo NEP inhibition after 3 hours following an oral dose of 10 mg/kg; type: functional, organism-based; design: dose 10 mg/kg
Rattus norvegicus [4] = assay: Tested for the plasma concentration based on ex vivo NEP inhibition after 0.5 hour following an oral dose of 10 mg/kg; type: functional, organism-based; design: dose 10 mg/kg
Rattus norvegicus [5] = assay: Tested for the inhibition of angiotensin I (AI) pressor response after 2 hours following an oral dose of 10 mg/kg; type: functional
[6] = target: T1, Angiotensin-converting enzyme (Oryctolagus cuniculus, UniProt P12822); assay: Tested in vitro for the inhibition of angiotensin converting enzyme from rabbit lung
T1 sequence (P12822 whole entry): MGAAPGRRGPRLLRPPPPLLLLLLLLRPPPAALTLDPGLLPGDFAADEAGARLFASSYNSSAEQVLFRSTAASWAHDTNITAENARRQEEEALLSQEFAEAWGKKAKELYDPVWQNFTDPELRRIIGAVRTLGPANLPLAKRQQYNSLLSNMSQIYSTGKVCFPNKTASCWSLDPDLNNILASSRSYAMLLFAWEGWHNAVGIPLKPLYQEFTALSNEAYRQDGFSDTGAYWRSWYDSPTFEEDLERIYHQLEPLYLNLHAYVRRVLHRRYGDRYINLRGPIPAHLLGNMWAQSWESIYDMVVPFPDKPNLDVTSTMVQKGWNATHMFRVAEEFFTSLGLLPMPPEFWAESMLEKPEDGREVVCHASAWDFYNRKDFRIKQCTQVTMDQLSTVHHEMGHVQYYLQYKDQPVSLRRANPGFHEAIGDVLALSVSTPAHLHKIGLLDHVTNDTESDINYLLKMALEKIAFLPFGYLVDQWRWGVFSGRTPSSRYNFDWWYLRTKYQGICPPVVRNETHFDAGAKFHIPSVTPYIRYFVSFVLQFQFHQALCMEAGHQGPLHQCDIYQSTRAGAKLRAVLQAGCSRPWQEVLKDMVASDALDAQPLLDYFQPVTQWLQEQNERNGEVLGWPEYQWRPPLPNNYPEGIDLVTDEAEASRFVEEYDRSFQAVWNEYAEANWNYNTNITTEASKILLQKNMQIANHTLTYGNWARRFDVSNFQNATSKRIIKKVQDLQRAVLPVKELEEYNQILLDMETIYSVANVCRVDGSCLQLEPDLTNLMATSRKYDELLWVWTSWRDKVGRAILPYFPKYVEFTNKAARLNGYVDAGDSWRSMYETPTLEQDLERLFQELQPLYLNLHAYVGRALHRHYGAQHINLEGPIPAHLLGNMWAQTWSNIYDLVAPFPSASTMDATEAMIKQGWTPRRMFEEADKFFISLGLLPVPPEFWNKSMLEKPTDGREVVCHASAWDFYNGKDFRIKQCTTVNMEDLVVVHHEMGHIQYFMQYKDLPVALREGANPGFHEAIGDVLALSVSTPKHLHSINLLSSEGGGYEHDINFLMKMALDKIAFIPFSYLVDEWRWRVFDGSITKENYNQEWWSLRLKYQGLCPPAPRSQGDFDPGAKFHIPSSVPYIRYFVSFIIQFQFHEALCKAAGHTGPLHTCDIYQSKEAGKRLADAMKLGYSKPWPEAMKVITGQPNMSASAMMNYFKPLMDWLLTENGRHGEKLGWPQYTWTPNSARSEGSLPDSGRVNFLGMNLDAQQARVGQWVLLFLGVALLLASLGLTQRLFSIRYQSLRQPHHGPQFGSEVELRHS

Rattus norvegicus [7] = assay: Tested for the inhibition of angiotensin I (AI) pressor response after 1 hour following an oral dose of 10 mg/kg; type: functional
Rattus norvegicus [8] = assay: Tested for the inhibition of angiotensin I (AI) pressor response after 0.5 hour following an oral dose of 10 mg/kg; type: functional
Neprilysin = target: T2, Neprilysin (Rattus norvegicus, UniProt P07861); assay: Tested in vitro for the inhibition against neutral endopeptidase (NEP) from rat kidney
T2 sequence (P07861 whole entry): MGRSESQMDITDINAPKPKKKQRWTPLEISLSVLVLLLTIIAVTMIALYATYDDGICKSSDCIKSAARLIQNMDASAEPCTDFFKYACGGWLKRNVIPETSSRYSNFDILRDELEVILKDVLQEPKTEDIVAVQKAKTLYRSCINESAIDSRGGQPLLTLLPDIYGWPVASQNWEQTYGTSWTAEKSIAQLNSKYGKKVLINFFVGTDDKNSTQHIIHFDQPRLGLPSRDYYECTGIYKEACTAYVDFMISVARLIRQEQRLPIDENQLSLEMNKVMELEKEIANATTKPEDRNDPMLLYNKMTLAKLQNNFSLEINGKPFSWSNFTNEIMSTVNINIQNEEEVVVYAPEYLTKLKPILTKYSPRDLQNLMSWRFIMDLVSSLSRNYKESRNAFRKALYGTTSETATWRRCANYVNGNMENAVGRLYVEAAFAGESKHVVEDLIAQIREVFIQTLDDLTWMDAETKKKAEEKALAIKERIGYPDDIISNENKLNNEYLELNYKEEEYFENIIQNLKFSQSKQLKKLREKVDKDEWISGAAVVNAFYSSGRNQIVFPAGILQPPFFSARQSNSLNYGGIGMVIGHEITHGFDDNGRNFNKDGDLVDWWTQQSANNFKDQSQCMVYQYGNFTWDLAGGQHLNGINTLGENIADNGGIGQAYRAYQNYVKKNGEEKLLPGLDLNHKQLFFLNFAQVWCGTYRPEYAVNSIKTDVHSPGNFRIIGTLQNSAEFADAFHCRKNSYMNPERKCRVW

| IC50 [6] [nM] | IC50 (Neprilysin) [nM] | Structure (SMILES) | inhibition in vivo at 10 mg/kg (Rattus norvegicus [5]) [%] | inhibition in vivo at 10 mg/kg (Rattus norvegicus [7]) [%] | inhibition in vivo at 10 mg/kg (Rattus norvegicus [8]) [%] | further results |
| --- | --- | --- | --- | --- | --- | --- |
|  |  | O=C1N[C@H](C(=O)O)CSCCCCCCCC1CS (single isomer, unassigned; isomer B) [listing 1 of 2 here] |  |  |  | Plasma concentration (Rattus norvegicus [1]): 0.32 µM; Plasma concentration (Rattus norvegicus [2]): 0.17 µM; Plasma concentration (Rattus norvegicus [3]): 0.06 µM; Plasma concentration (Rattus norvegicus [4]): 1.81 µM |
| 12 | 18 | O=C1N[C@H](C(=O)O)CSCCCCCCCC1CS (single isomer, unassigned; isomer B) [listing 2 of 2 here] | 0 | 17 | 71 |  |
| 4600 | 1300 | O=C1N[C@H](C(=O)O)CSCCCCCCCCC1CS (stereo in doubt; 12a) |  |  |  |  |
| 17 | 167 | O=C1N[C@H](C(=O)O)CSCCCCCCCCC1CS (stereo in doubt; 12b) |  |  |  |  |
|  |  | O=C(O)CN1C(=O)[C@@H](N[C@@H](CCc2ccccc2)C(=O)O)CCc2ccccc21 [BENAZEPRILAT] | 77 | 86 | 100 |  |
| 72 | 190 | O=C1N[C@H](C(=O)O)CSCCCCCCCC1CS (single isomer, unassigned; isomer A) |  |  |  |  |
